Test results as given in patent US5001158A, “Nitrosoureas compounds preparation thereof and utilization thereof in anticancerous” (Centre National de la Recherche Scientifique, priority 1990, dated 1991).
Like-named read-outs stand apart in the source and are kept apart here.

How the values were obtained:
[1] = tested on: Mammary adenocarcinoma TM2; set-up: key: N.S.: Not significant; .infin.: 50% more of the treated animals are cure; details: days 1, 5 and 9, cited from earlier work
[2] = tested on: Lewis pulmonary carcinoma; set-up: key: N.S.: Not significant; .infin.: 50% more of the treated animals are cure; details: days 1, 5 and 9, cited from earlier work
Ovarian M 555 = tested on: Ovarian M 555; set-up: key: N.S.: Not significant; .infin.: 50% more of the treated animals are cure; details: days 1, 5 and 9, cited from earlier work
Glioma 26 = tested on: Glioma 26; set-up: key: N.S.: Not significant; .infin.: 50% more of the treated animals are cure; details: days 1, 5 and 9, cited from earlier work
Melanocarcinoma B 16 = tested on: Melanocarcinoma B 16; set-up: key: N.S.: Not significant; .infin.: 50% more of the treated animals are cure; details: days 1, 5 and 9, cited from earlier work
Fibrosarcoma I.C.I.G. C1 = tested on: Fibrosarcoma I.C.I.G. C1; set-up: key: N.S.: Not significant; .infin.: 50% more of the treated animals are cure; details: days 1, 5 and 9, cited from earlier work
Leukemia L 1210 [3] = tested on: Leukemia L 1210; set-up: key: N.S.: Not significant; .infin.: 50% more of the treated animals are cure; details: days 1, 5 and 9, cited from earlier work
[4] = tested on: Carcinoma of the colon (colon 26); set-up: key: N.S.: Not significant; .infin.: 50% more of the treated animals are cure; details: days 1, 5 and 9, cited from earlier work
[5] = Solubility in solvents allowing intravenous administration; format: physicochemical; details: solvents which allow intravenous administration
[6] = tested on: types of tumor listed in Table I; details: cited from earlier work
leukemia L 1210 [7] = assay: Antitumoral activity on leukemia L 1210 grafted i.p. in mice, sulfoxide and sulfone mixtures (Unit 71 of INSERM); format: in vivo, mice (B6 D2 F1 /IFFA CREDO); details: D1, D5, D9
Description: This activity was also studied on mice carrying leukemia L 1210 grafted i.p. This experimental tumor is the one most frequently used in the primary screening of cytostatic drugs.
These tests were conducted in parallel in two laboratories: at Unit 71 of the Institut National de la Sante et de la Recberche Mediecale (INSERM), ClermontFerrand, and at the Institut de Cancerologie et d' Immunogenetique (ICIG), Villejuif.
The antitumoral efficacy of the products according to the invention was compared with that of CNCC.
On day D:0, three-month-old male B6 D2 F1 mice received 10^5 cells of the leukemia strain L 1210 by intraperitoneal administration. The animals are divided up into groups of 8 to 10 animals for the control groups and 6 to 8 animals for the treated groups. On days D:1, D:5 and D:9, the animals receive the treatment at different doses by intraperitoneal or intravenous administration. The CNCC is administered as a suspension in olive oil. The products according to the invention are administered in physiological serum. The mortality is recorded every day. The survival median was determined for the treated animals and the control animals. The results are considered to be positive if the index I= [formula] is greater than 125.
The value .infin. means that 50% to 100% of the animals have survived to day D:90.
The cytostatic activity oi the products according to the invention on leukemia L 1210 was evaluated on B6 D2 F1 /IFFA CREDO mice according to the protocol described previously.
The following were administered intraperitoneally (i.p.): the mixture A1 A2 in the following proportions: A1 (70%) and A2 (30%), or the mixture B1 B2 in the same proportions, or CNCC at the following doses: 10 mg/kg, 20 mg/kg, 30 mg/kg, 40 mg/kg and 50 mg/kg. The results are given in Table II and invite the following remarks: […]

O=NN(CCCl)C(=O)N[C@H]1C(O)O[C@H](CO)[C@@H](O)[C@@H]1O (stereo partly shown) [CHLOROZOTOCIN, chlorozotocin]
Increase in the survival time (I.L.S.: T/C × 100) ([1]; 15 mg/kg i.p.): N.S. | Increase in the survival time (I.L.S.: T/C × 100) ([2]; 15 mg/kg i.p.): N.S. | Increase in the survival time (I.L.S.: T/C × 100) (Ovarian M 555; 15 mg/kg i.p.): .infin. (50% more of the treated animals are cure) | Increase in the survival time (I.L.S.: T/C × 100) (Glioma 26; 15 mg/kg i.p.): N.S. | Increase in the survival time (I.L.S.: T/C × 100) (Melanocarcinoma B 16; 15 mg/kg i.p.): N.S. | Increase in the survival time (I.L.S.: T/C × 100) (Fibrosarcoma I.C.I.G. C1; 15 mg/kg i.p.): .infin. (50% more of the treated animals are cure) | Increase in the survival time (I.L.S.: T/C × 100) (Leukemia L 1210 [3]; 15 mg/kg i.p.): N.S. | Increase in the survival time (I.L.S.: T/C × 100) ([4]; 15 mg/kg i.p.): .infin. (50% more of the treated animals are cure)

O=NN(CCCl)C(=O)NCCSSCCN(N=O)C(=O)NCCCl [CNCC, N[N-(2-chloroethyl) N-nitrosocarbamoyl]-N'-[N(2-chloroethyl)carbamoyl] N'-nitrosocystamine]
Increase in the survival time (I.L.S.: T/C × 100) ([1]; 30 mg/kg i.p.): 185 | Increase in the survival time (I.L.S.: T/C × 100) ([2]; 30 mg/kg i.p.): .infin. (50% more of the treated animals are cure) | Increase in the survival time (I.L.S.: T/C × 100) (Ovarian M 555; 30 mg/kg i.p.): > 254 | Increase in the survival time (I.L.S.: T/C × 100) (Glioma 26; 30 mg/kg i.p.): 200 | solubility (in words) [5]: insolubility of this compound in the solvents which allow intravenous administration | Increase in the survival time (I.L.S.: T/C × 100) (Melanocarcinoma B 16; 30 mg/kg i.p.): 200 | Increase in the survival time (I.L.S.: T/C × 100) (Fibrosarcoma I.C.I.G. C1; 30 mg/kg i.p.): N.S. | Increase in the survival time (I.L.S.: T/C × 100) (Leukemia L 1210 [3]; 30 mg/kg i.p.): .infin. (50% more of the treated animals are cure) | activity against types of tumor (in words) [6]: active against all the types of tumor listed in Table I, with the exception of fibrosarcoma I.C.I.G | activity compared with the other chloroethylnitrosoureas (in words) [6]: quantitatively greater than those observed with the other chloroethylnitrosoureas | T/C × 100 (leukemia L 1210 [7]; 10 mg/kg i.p.): 250 | number of animals surviving to 90 days (leukemia L 1210 [7]; 10 mg/kg i.p.): 0/6 | T/C × 100 (leukemia L 1210 [7]; 20 mg/kg i.p.): .infin. (50 to 100% of the animals surviving to 90 days) | number of animals surviving to 90 days (leukemia L 1210 [7]; 20 mg/kg i.p.): 6/6 | T/C × 100 (leukemia L 1210 [7]; 30 mg/kg i.p.): .infin. (50 to 100% of the animals surviving to 90 days) | number of animals surviving to 90 days (leukemia L 1210 [7]; 30 mg/kg i.p.): 6/6 | T/C × 100 (leukemia L 1210 [7]; 40 mg/kg i.p.): .infin. (50 to 100% of the animals surviving to 90 days) | number of animals surviving to 90 days (leukemia L 1210 [7]; 40 mg/kg i.p.): 3/6 | T/C × 100 (leukemia L 1210 [7]; 50 mg/kg i.p.): 125 | number of animals surviving to 90 days (leukemia L 1210 [7]; 50 mg/kg i.p.): 0/6 | Increase in the survival time (I.L.S.: T/C × 100) ([4]; 30 mg/kg i.p.): .infin. (50% more of the treated animals are cure)

O=NN(CCCl)C(=O)NCCO [H.E.C.N.U., 1-(2-hydroxyethyl)-3-(2-chloroethyl) 3-nitrosourea]
Increase in the survival time (I.L.S.: T/C × 100) ([1]; 10 mg/kg i.p.): 165 | Increase in the survival time (I.L.S.: T/C × 100) ([2]; 10 mg/kg i.p.): .infin. (50% more of the treated animals are cure) | Increase in the survival time (I.L.S.: T/C × 100) (Ovarian M 555; 10 mg/kg i.p.): 210 | Increase in the survival time (I.L.S.: T/C × 100) (Glioma 26; 10 mg/kg i.p.): 182 | Increase in the survival time (I.L.S.: T/C × 100) (Melanocarcinoma B 16; 10 mg/kg i.p.): 198 | Increase in the survival time (I.L.S.: T/C × 100) (Fibrosarcoma I.C.I.G. C1; 10 mg/kg i.p.): N.S. | Increase in the survival time (I.L.S.: T/C × 100) (Leukemia L 1210 [3]; 10 mg/kg i.p.): .infin. (50% more of the treated animals are cure) | Increase in the survival time (I.L.S.: T/C × 100) ([4]; 10 mg/kg i.p.): .infin. (50% more of the treated animals are cure)

CC1(C)O[C@@H]2[C@@H](COC(=O)c3ccc([N+](=O)[O-])cc3)OC(NC(=O)N(CCCl)N=O)[C@@H]2O1 (stereo partly drawn) [R.F.C.N.U., 1-(2-chloroethyl)-3-[1'-(5'-pnitrobenzoyl 2', 3'-isopropylidene)alphabeta D-ribofuranosyl]-1-nitrosourea]
Increase in the survival time (I.L.S.: T/C × 100) ([1]; 20 mg/kg i.p.): N.S. | Increase in the survival time (I.L.S.: T/C × 100) ([2]; 20 mg/kg i.p.): N.S. | Increase in the survival time (I.L.S.: T/C × 100) (Ovarian M 555; 20 mg/kg i.p.): N.S. | Increase in the survival time (I.L.S.: T/C × 100) (Glioma 26; 20 mg/kg i.p.): N.S. | Increase in the survival time (I.L.S.: T/C × 100) (Melanocarcinoma B 16; 20 mg/kg i.p.): 144 | Increase in the survival time (I.L.S.: T/C × 100) (Fibrosarcoma I.C.I.G. C1; 20 mg/kg i.p.): .infin. (50% more of the treated animals are cure) | Increase in the survival time (I.L.S.: T/C × 100) (Leukemia L 1210 [3]; 20 mg/kg i.p.): 167 | Increase in the survival time (I.L.S.: T/C × 100) ([4]; 20 mg/kg i.p.): N.S.

CC(=O)O[C@@H]1[C@H](OC(C)=O)COC(NC(=O)N(CCCl)N=O)[C@@H]1OC(C)=O (stereo partly drawn) [R.P.C.N.U., 1-(2-chloroethyl)-3-[(2'-3'-4° trioacetyl)alphabeta D-ribopyrannosyl]-1-nitrosourea]
Increase in the survival time (I.L.S.: T/C × 100) ([1]; 15 mg/kg i.p.): 134 | Increase in the survival time (I.L.S.: T/C × 100) ([2]; 15 mg/kg i.p.): N.S. | Increase in the survival time (I.L.S.: T/C × 100) (Ovarian M 555; 15 mg/kg i.p.): .infin. (50% more of the treated animals are cure) | Increase in the survival time (I.L.S.: T/C × 100) (Glioma 26; 15 mg/kg i.p.): 127 | Increase in the survival time (I.L.S.: T/C × 100) (Melanocarcinoma B 16; 15 mg/kg i.p.): 151 | Increase in the survival time (I.L.S.: T/C × 100) (Leukemia L 1210 [3]; 15 mg/kg i.p.): N.S. | Increase in the survival time (I.L.S.: T/C × 100) ([4]; 15 mg/kg i.p.): N.S.
